Where two headings read alike, the source gives them in different places.
Columns and labels:
[1] = test system: NCI-H358 tumor cells xenograft; assay: Pharmacodynamics test of xenograft tumor model of NCI-H358 in nude mice; assay type: in vivo, Balb/c Nude mice; settings: NCI-H358 xenograft, 100 mg/kg, QD×15 days, oral gavage
Protocol: Animal species and number: Balb/c Nude; 6 animals per group.
Samples for testing: compound 3-2M, compound 3-16M, TM-1, TM-3, and AMG510 (obtained by purchasing).
Test groups: blank solvent control group; compound 3-2M (100 mg/kg, QD×15 days), compound 3-16M (100 mg/kg, QD×15 days), TM-1 (100 mg/kg, QD×15 days), TM-3 (100 mg/kg, QD×15 days); and AMG510 (100 mg/kg, QD×15 days).
Animal model establishment: NCI-H358 tumor cells at logarithmic phase were cultured and collected in vitro, and inoculated subcutaneously on the right side of the back of nude mice at a quantity of 5×10^6 cells/each, and the tumor-bearing nude mice were randomly grouped when the tumor volume grew to 150-300 mm^3. Subsequently, each group of animals was administered and the day of the first administration was defined as day 1 of the test.
Administration route and frequency: oral gavage; and once a day.
General state observation: observation time and frequency: once a day; observation index or content: including, but is not limited to local administration, appearance and signs, general behavioral activities, mental status, death and other abnormal manifestations of the animals. The animals were euthanized at the end of the test.
Tumor volume calculation: V=½×long diameter× short diameter^2 (mm^3). Tumor growth inhibition ratio TGI (%) was used to evaluate the tumor suppressive efficacy of the compounds. TGI (%)=[1-(mean tumor volume at the end of administration of the treatment group−mean tumor volume at the beginning of administration of the treatment group)/(mean tumor volume at the end of administration of the control group−mean tumor volume at the beginning of administration of the control group)]×100%.

[2] = test system: NCI-H358; assay: Cell proliferation inhibitory activity of NCI-H358, 3D model test (agarose colony formation); assay type: cell-based; settings: Homo sapiens, NCI-H358; agarose gel, colony formation, NBT staining
Protocol: 100 μl of high concentration agarose gel was spread in a 96-well plate as a bottom agarose gel layer; low concentration agarose and growth medium containing cells were mixed and spread on the bottom agarose gel layer, cooled and solidified and incubated overnight at 37° C.; a test compound was prepared into a mother liquor with DMSO, diluted with a RPMI 1640 growth medium in a concentration gradient, and the gradient diluted solution of the compound to be tested with different concentrations was added into 96 wells containing upper agarose gel cells, and solvent control wells were set and placed in a carbon dioxide incubator for culture. During the period, the drug-containing medium was changed to observe the cell growth. After the culture, the cells were stained with NBT, the number of colony formation was counted, and the IC50 value of the compound inhibiting cell proliferation was obtained.

[3] = test system: Langendorff isolated perfused heart; assay: In vitro isolated heart perfusion test (Langendorff); parameters: species or system Guinea pig; settings: 3.3 μM
Description: Test method: influences of Langendorff isolated perfused heart test compounds on electrocardiogram, wherein the test method used in this test was as follows: [table] Test compounds: compound 3-2M and the compound in Example 41 of patent WO2018217651A1 (i.e., AMG510).

[4] = test system: NCI-H358 cells; assay: Cell proliferation inhibitory activity, NCI-H358 (CellTiter-Glo); assay type: cell-based; settings: for IC50: Homo sapiens
Protocol: (§1) NCI-H358 cells in an exponential growth phase were digested with trypsin-EDTA and plated in a 96-well plate at 2000-3000 cells per well and incubated overnight at 37° C. with 5% CO2. A test compound was prepared as a mother liquor with DMSO, diluted with a RPMI 1640 growth medium in a concentration gradient and added to the 96-well plate and incubated for 72 hours at 37° C. in a 5% CO2 incubator. After incubation, an equal volume of CellTiter-Glo detection reagent was added to each well and incubated after shaking, and a chemiluminescence value was measured by a microplate reader, and the IC50 value for the inhibition of NCI-H358 cell proliferation was fitted and calculated by GraphPad Prism software.
The inhibitory effect of the compounds on the proliferation activity of H358 cells was tested with reference to the method of the biological test 2, and the results were as follows:
The inhibitory effect of the compounds on the proliferation activity of NCI-H358 cells was tested with reference to the method of the biological test 2, and the results were as follows.

[5] = test system: MIA PaCa-2 cells; assay: Cell proliferation inhibitory activity, MIA PaCa-2 (CellTiter-Glo); assay type: cell-based; settings: for IC50: Homo sapiens, MIA PaCa-2 cells, 72 hours
Protocol: as §1, with “MIA PaCa-2” for “NCI-H358”, “DMEM” for “RPMI 1640”

[6] = NCI-H358, biological test 3, H358 cells, read-out: Cell proliferation inhibitory activity IC50 value of H358
[7] = NCI-H358, 72 h, biological test 2, NCI-H358 cells, 72 hours, read-out: Cell proliferation inhibitory activity IC50 value of H358
[8] = NCI-H358, biological test 7, NCI-H358 cells, read-out: Cell proliferation inhibitory activity IC50 value of NCI-H358

C=CC(=O)N1CCN(c2nc(=O)n(-c3c(C)ccnc3C(C)C)c3nc(-c4c(O)cccc4F)c(F)cc23)[C@@H](C)C1 [AMG510, reference compound]
Tumor suppression ratio (%) [1]: +++ (“+++” represents that the tumor suppression ratio is between 101% and 140%)
IC50 [2]: 9.3 nM
effect on the heart rate of the isolated heart (in words) [3]: significant effect on reducing the heart rate
HR (heart rate) change % ([3]; Guinea pig isolated heart): C (“C” represents that the heart rate decreases by greater than or equal to 15%)

C=CC(=[18O])N1CCN(c2nc(=O)n(-c3c(C)ccnc3C(C)C)c3nc(-c4ccccc4C=O)c(Cl)cc23)[C@@H](C)C1 [Compound 3-1MIS]
cell proliferation inhibitory activity against KRAS G12C mutant cells NCI-H358 (in words) [4]: significant cell proliferation inhibitory activities
IC50 [4, 6]: < 50 nM

C=CC(=[18O])N1CCN(c2nc(=O)n(-c3c(CC)ccnc3C(C)C)c3nc(-c4ccccc4C=O)c(Cl)cc23)[C@@H](C)C1 [Compound 3-2MIS]
cell proliferation inhibitory activity against KRAS G12C mutant cells NCI-H358 (in words) [4]: significant cell proliferation inhibitory activities
IC50 [4, 6]: < 50 nM

C=CC(=O)N1CCN(c2nc(=O)n(-c3c(C)ccnc3C(C)C)c3nc(-c4ccccc4C=O)c(Cl)cc23)[C@@H](C)C1 [Compound 3-2]
cell proliferation inhibitory activity against KRAS G12C mutant cells NCI-H358 (in words) [4]: significant cell proliferation inhibitory activities
IC50 [4, 7]: ≤ 50 nM
cell proliferation inhibitory activity against KRAS G12C mutant cells MIA PaCa-2 (in words) [5]: significant cell proliferation inhibitory activities
IC50 [5]: < 50 nM

C=CC(=[18O])N1CCN(c2nc(=O)n(-c3c(C)ccnc3C(C)C)c3nc(-c4c(F)cccc4C=O)c(Cl)cc23)[C@@H](C)C1 [Compound 3-3MIS]
cell proliferation inhibitory activity against KRAS G12C mutant cells NCI-H358 (in words) [4]: significant cell proliferation inhibitory activities
IC50 [4, 6]: < 50 nM

C=CC(=[18O])N1C[C@H](C)N(c2nc(=O)n(-c3c(C)ccnc3C(C)C)c3nc(-c4ccccc4C=O)c(Cl)cc23)[C@@H](C)C1 [Compound 3-4MIS]
cell proliferation inhibitory activity against KRAS G12C mutant cells NCI-H358 (in words) [4]: significant cell proliferation inhibitory activities
IC50 [4, 6]: < 50 nM

[2H]C(=O)c1ccccc1-c1nc2c(cc1Cl)c(N1CCN(C(=[18O])C=C)C[C@@H]1C)nc(=O)n2-c1c(C)ccnc1C(C)C [Compound 3-5MIS]
cell proliferation inhibitory activity against KRAS G12C mutant cells NCI-H358 (in words) [4]: significant cell proliferation inhibitory activities
IC50 [4, 6]: < 50 nM

[2H]C(=O)c1ccccc1-c1nc2c(cc1Cl)c(N1CCN(C(=O)C=C)C[C@@H]1C)nc(=O)n2-c1c(CC)ccnc1C(C)C [Compound 3-6B]
cell proliferation inhibitory activity against KRAS G12C mutant cells NCI-H358 (in words) [4]: significant cell proliferation inhibitory activities
IC50 [4, 7]: ≤ 50 nM
IC50 [4, 8]: < 50 nM

[2H]C(=O)c1ccccc1-c1nc2c(cc1Cl)c(N1CCN(C(=[18O])C=C)C[C@@H]1C)nc(=O)n2-c1c(CC)ccnc1C(C)C [Compound 3-6MIS]
cell proliferation inhibitory activity against KRAS G12C mutant cells NCI-H358 (in words) [4]: significant cell proliferation inhibitory activities
IC50 [4, 6]: < 50 nM

C=CC(=O)N1CCN(c2nc(=O)n(-c3c(C)ccnc3C(C)C)c3nc(-c4c(F)cccc4C=O)c(Cl)cc23)[C@@H](C)C1 [Compound 3-6P]
IC50 [4, 7]: > 50 nM

C=CC(=O)N1CCN(c2nc(=O)n(-c3c(C)ccnc3C(C)C)c3nc(-c4c(F)cccc4C=O)c(Cl)cc23)[C@@H](C)C1 [Compound 3-6]
cell proliferation inhibitory activity against KRAS G12C mutant cells NCI-H358 (in words) [4]: significant cell proliferation inhibitory activities
cell proliferation inhibitory activity against KRAS G12C mutant cells MIA PaCa-2 (in words) [5]: significant cell proliferation inhibitory activities
IC50 [5]: < 50 nM

[2H]C(=O)c1cccc(F)c1-c1nc2c(cc1Cl)c(N1CCN(C(=[18O])C=C)C[C@@H]1C)nc(=O)n2-c1c(C)ccnc1C(C)C [Compound 3-7MIS]
cell proliferation inhibitory activity against KRAS G12C mutant cells NCI-H358 (in words) [4]: significant cell proliferation inhibitory activities
IC50 [4, 6]: < 50 nM

[2H]C(=O)c1ccccc1-c1nc2c(cc1Cl)c(N1[C@@H](C)CN(C(=[18O])C=C)C[C@@H]1C)nc(=O)n2-c1c(C)ccnc1C(C)C [Compound 3-8MIS]
cell proliferation inhibitory activity against KRAS G12C mutant cells NCI-H358 (in words) [4]: significant cell proliferation inhibitory activities
IC50 [4, 6]: < 50 nM

[2H]C(=O)c1ccccc1-c1nc2c(cc1Cl)c(N1[C@@H](C)CN(C(=O)C=C)C[C@@H]1C)nc(=O)n2-c1c(C)ccnc1C(C)C [Compound 3-14]
cell proliferation inhibitory activity against KRAS G12C mutant cells NCI-H358 (in words) [4]: significant cell proliferation inhibitory activities
IC50 [4, 7]: ≤ 50 nM

C=CC(=O)N1C[C@H](C)N(c2nc(=O)n(-c3c(C)ccnc3C(C)C)c3nc(-c4ccccc4C=O)c(Cl)cc23)C[C@H]1C [Compound 3-17M]
cell proliferation inhibitory activity against KRAS G12C mutant cells MIA PaCa-2 (in words) [5]: significant cell proliferation inhibitory activities
IC50 [5]: < 50 nM

C=CC(=O)N1C[C@H](C)N(c2nc(=O)n(-c3c(C)ccnc3C(C)C)c3nc(-c4c(F)cccc4C=O)c(Cl)cc23)C[C@H]1C [Compound 3-19M]
cell proliferation inhibitory activity against KRAS G12C mutant cells MIA PaCa-2 (in words) [5]: significant cell proliferation inhibitory activities
IC50 [5]: < 50 nM

[2H]C(=O)c1ccccc1-c1nc2c(cc1Cl)c(N1CCN(C(=O)C=C)C[C@]1([2H])C)nc(=O)n2-c1c(C)ccnc1C(C)C [Compound 3-28M]
cell proliferation inhibitory activity against KRAS G12C mutant cells NCI-H358 (in words) [4]: significant cell proliferation inhibitory activities
IC50 [4, 7]: ≤ 50 nM

C=CC(=O)N1CCN(c2nc(=O)n(-c3c(C(C)C)ncnc3C(C)C)c3nc(-c4ccccc4C=O)c(Cl)cc23)[C@@H](C)C1 [Compound 3-31]
cell proliferation inhibitory activity against KRAS G12C mutant cells NCI-H358 (in words) [4]: significant cell proliferation inhibitory activities
IC50 [4, 8]: < 50 nM

C=CC(=O)N1CCN(c2nc(=O)n(-c3c(C)ccnc3C(C)C)c3nc(-c4ccccc4C(C)=O)c(Cl)cc23)[C@@H](C)C1 [TM-1, reference compound]
Tumor suppression ratio (%) [1]: ++ (“++” represents that the tumor suppression ratio is between 60% and 100%)
IC50 [4, 8]: 50 to 150 nM

C=CC(=O)N1C[C@H](C)N(c2nc(=O)n(-c3c(C)ccnc3C(C)C)c3nc(-c4ccccc4C(N)=O)c(Cl)cc23)C[C@H]1C [TM-2, reference compound]
IC50 [4, 8]: > 150 nM

C=CC(=O)N1C[C@H](C)N(c2nc(=O)n(-c3c(C)ccnc3C(C)C)c3nc(-c4ccccc4C(=O)O)c(Cl)cc23)C[C@H]1C [TM-3, reference compound]
Tumor suppression ratio (%) [1]: + (“+” represents that the tumor suppression ratio is less than 60%)
IC50 [4, 8]: > 150 nM
